27 compounds from patent US9944603B2, “Compounds and methods for the treatment of cystic fibrosis” (Flatley Discovery Lab, LLC, priority 2013, dated 2018) can be followed below.

A value given as a limit tells only on which side of the number the result lay.

In one assay the target is T1, human F508del CFTR (Homo sapiens, UniProt P13569, DEL508-508).
T1 construct: expressed in transfected cells
T1 sequence (P13569 with tags, fused parts or gaps DEL508-508): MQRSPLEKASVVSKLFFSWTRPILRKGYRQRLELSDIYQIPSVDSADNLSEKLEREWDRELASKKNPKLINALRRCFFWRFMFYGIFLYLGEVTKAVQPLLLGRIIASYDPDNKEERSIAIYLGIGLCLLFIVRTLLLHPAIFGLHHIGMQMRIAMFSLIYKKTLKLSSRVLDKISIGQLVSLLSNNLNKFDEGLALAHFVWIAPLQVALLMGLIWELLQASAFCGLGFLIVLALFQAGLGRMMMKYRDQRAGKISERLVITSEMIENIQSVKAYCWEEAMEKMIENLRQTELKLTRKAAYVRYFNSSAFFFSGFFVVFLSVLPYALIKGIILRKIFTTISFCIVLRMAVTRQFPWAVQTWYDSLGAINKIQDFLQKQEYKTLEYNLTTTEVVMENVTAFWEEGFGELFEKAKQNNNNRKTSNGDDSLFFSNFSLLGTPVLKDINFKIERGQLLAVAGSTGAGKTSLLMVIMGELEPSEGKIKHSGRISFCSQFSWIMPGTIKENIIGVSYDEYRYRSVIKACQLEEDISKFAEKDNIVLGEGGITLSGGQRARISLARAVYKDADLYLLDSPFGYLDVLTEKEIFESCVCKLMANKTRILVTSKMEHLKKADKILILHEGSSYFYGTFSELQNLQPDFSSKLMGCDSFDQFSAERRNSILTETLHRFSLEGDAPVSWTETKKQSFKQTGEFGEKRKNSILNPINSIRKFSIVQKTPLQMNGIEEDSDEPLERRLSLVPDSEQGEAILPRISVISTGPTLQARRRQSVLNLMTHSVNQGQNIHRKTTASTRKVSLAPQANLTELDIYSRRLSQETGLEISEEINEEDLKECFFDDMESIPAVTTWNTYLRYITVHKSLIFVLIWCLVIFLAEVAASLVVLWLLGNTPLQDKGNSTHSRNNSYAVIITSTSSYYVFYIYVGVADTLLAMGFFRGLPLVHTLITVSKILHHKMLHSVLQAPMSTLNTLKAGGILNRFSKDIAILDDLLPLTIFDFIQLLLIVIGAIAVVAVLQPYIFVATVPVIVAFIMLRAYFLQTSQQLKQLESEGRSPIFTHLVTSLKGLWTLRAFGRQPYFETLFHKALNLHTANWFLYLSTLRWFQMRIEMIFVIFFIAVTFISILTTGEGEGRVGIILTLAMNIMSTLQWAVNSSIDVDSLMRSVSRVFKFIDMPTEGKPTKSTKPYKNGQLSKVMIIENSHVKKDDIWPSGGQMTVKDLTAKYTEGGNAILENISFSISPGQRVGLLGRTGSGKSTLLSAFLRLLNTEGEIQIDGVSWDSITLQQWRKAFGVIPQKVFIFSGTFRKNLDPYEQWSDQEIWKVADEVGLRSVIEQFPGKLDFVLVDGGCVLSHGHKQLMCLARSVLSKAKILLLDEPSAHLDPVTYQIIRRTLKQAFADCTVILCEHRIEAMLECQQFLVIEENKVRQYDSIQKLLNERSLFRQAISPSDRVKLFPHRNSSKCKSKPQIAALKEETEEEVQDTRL
In words: CFTR-YFP Assay, CFTR Corrector Protocol (YFP flux assay).
Conditions: not given
Format: cell-based.
One may read the EC50 as the concentration needed to bring the measured effect to its halfway point. With `O=S(=O)(c1ccc2c(c1)OC(F)(F)O2)N1CCC(n2c(-c3ccncc3Cl)nc3cccnc32)CC1` [Example 38], the EC50 is < 10 µM.
Consider `O=S(=O)(c1ccc2c(c1)OC(F)(F)O2)N1CCC(n2c(-c3ccccc3Cl)nc3cccnc32)CC1` [Example 39], for which the EC50 is < 10 µM.
On to `O=S(=O)(c1ccc2c(c1)OC(F)(F)O2)N1CCC(n2c(-c3ccncc3Cl)nc3ncccc32)CC1` [Example 40], for which the EC50 is < 10 µM.
Regarding `CCc1ccc(S(=O)(=O)N2CCC(n3c(-c4ccncc4Cl)nc4cccnc43)CC2)cc1` [Example 41], the EC50 is < 10 µM.
In the case of `CCc1ccc(S(=O)(=O)N2CCC(n3c(-c4ccncc4Cl)nc4ccc(OC)nc43)CC2)cc1` [Example 42], the EC50 is < 10 µM.
Regarding `Cc1ccc2nc(-c3ccc(F)cc3F)n(C3CCN(S(=O)(=O)c4ccc5c(c4)OC(F)(F)O5)CC3)c2n1` [Example 43], the EC50 is < 10 µM.
The same measure, in the same setting: in the case of `[2H]C1([2H])Oc2ccc(S(=O)(=O)N3CCC(n4c(-c5ccncc5Cl)nc5cccnc54)CC3)cc2O1` [Example 44] it was < 10 µM.
`CCc1ccc(S(=O)(=O)N2CCC(n3c(-c4cccnc4Cl)nc4cccnc43)CC2)cc1` [Example 45]: the 50% effective concentration (EC50) is < 10 µM.
Regarding `O=S(=O)(c1ccc(OC(F)F)cc1)N1CCC(n2c(-c3ccccc3Cl)nc3cccnc32)CC1` [Example 46], the EC50 is < 10 µM.
As for `CCc1ccc(S(=O)(=O)N2CCC(n3c(-c4ccc(F)cc4F)nc4cccnc43)CC2)cc1` [Example 47], the EC50 was < 10 µM.
In the case of `O=S(=O)(c1ccc2c(c1)OC(F)(F)O2)N1CCC(n2c(-c3ccccc3)nc3cccnc32)CC1` [Example 48], the EC50 was < 10 µM.
Consider `COc1ccc(S(=O)(=O)N2CCC(n3c(-c4ccccc4C(F)(F)F)nc4cccnc43)CC2)cc1Cl` [Example 49], for which the EC50 is < 10 µM.
Consider `COc1ccc(S(=O)(=O)N2CCC(n3c(-c4ccccc4C#N)nc4cccnc43)CC2)cc1Cl` [Example 50], for which the EC50 was < 10 µM.
Still for that read-out and setting: in the case of `O=S(=O)(c1ccc2c(c1)CCC2)N1CCC(n2c(-c3ccncc3F)nc3cccnc32)CC1` [Example 51] it was < 10 µM.
On to `O=S(=O)(c1ccc2c(c1)OC(F)(F)O2)N1CCC(n2c(-c3ccncc3F)nc3cccnc32)CC1` [Example 52], for which the EC50 is < 10 µM.
In the case of `COc1ccc(S(=O)(=O)N2CCC(n3c(-c4ccc(F)cc4F)nc4cccnc43)CC2)cc1Cl` [Example 53], the EC50 was < 10 µM.
Same read-out and setting: in the case of `Cc1ccc2nc(-c3ncccc3Cl)n(C3CCN(S(=O)(=O)c4ccc5c(c4)OC(F)(F)O5)CC3)c2n1` [Example 54] it was < 10 µM; in that of `COc1ccc(S(=O)(=O)N2CCC(n3c(-c4ccccc4OC)nc4cccnc43)CC2)cc1Cl` [Example 55], < 10 µM.
Same read-out and setting: in the case of `O=S(=O)(c1ccc(OC(F)F)cc1)N1CCC(n2c(-c3ccncc3Cl)nc3cccnc32)CC1` [Example 56] it was < 10 µM; in that of `COc1ccc(S(=O)(=O)N2CCC(n3c(-c4ccc5c(c4)OCO5)nc4cccnc43)CC2)cc1Cl` [Example 57], < 10 µM.
Same read-out and setting: the result for `COc1ccc2nc(-c3ccncc3Cl)n(C3CCN(S(=O)(=O)c4ccc(OC)c(Cl)c4)CC3)c2n1` [Example 58] reads < 10 µM; that for `Cc1ccc(S(=O)(=O)N2CCC(n3c(-c4ccccc4Cl)nc4cccnc43)CC2)cc1` [Example 59], < 10 µM; that for `COc1ccc(S(=O)(=O)N2CCC(n3c(-c4ccccc4Cl)nc4cccnc43)CC2)cc1F` [Example 60], < 10 µM.
Consider `Cc1ccc(S(=O)(=O)N2CCC(n3c(-c4ccccc4)nc4ccc(C)nc43)CC2)cc1` [Example 61], for which the EC50 is < 10 µM.
Turning to `Cc1ccc2nc(-c3ccccc3)n(C3CCN(S(=O)(=O)c4ccc5c(c4)OCO5)CC3)c2n1` [Example 62], the EC50 is < 10 µM.
As to `Cc1ccc2nc(-c3ccccc3)n(C3CCN(S(=O)(=O)c4ccc(C)c(Cl)c4)CC3)c2n1` [Example 63], the EC50 was < 10 µM.
With `COc1ccc(S(=O)(=O)N2CCC(n3c(-c4ccccc4)nc4ccc(C)nc43)CC2)cc1F` [Example 64], the EC50 is < 10 µM.

The assay is the same for the next values; noted with them: normalized to the positive control, read-out: EMAX (% Efficacy, EMAX normalized to the positive control).
As usually defined, the Emax is the greatest response seen or fitted, relative to the assay's reference. Take `O=S(=O)(c1ccc2c(c1)OC(F)(F)O2)N1CCC(n2c(-c3ccncc3Cl)nc3cccnc32)CC1` [Example 38]: the Emax was > 80%.
For the compound `O=S(=O)(c1ccc2c(c1)OC(F)(F)O2)N1CCC(n2c(-c3ccccc3Cl)nc3cccnc32)CC1` [Example 39], the Emax was in the range of 30 to 80%.
On the same count and under the same terms, the result for `O=S(=O)(c1ccc2c(c1)OC(F)(F)O2)N1CCC(n2c(-c3ccncc3Cl)nc3ncccc32)CC1` [Example 40] reads 30 to 80%; that for `CCc1ccc(S(=O)(=O)N2CCC(n3c(-c4ccncc4Cl)nc4cccnc43)CC2)cc1` [Example 41], 30 to 80%.
`CCc1ccc(S(=O)(=O)N2CCC(n3c(-c4ccncc4Cl)nc4ccc(OC)nc43)CC2)cc1` [Example 42]: the Emax is 30 to 80%.
Take `Cc1ccc2nc(-c3ccc(F)cc3F)n(C3CCN(S(=O)(=O)c4ccc5c(c4)OC(F)(F)O5)CC3)c2n1` [Example 43]: the Emax lay within 30 to 80%.
As for `[2H]C1([2H])Oc2ccc(S(=O)(=O)N3CCC(n4c(-c5ccncc5Cl)nc5cccnc54)CC3)cc2O1` [Example 44], the Emax fell in the range of 30 to 80%.
Consider `CCc1ccc(S(=O)(=O)N2CCC(n3c(-c4cccnc4Cl)nc4cccnc43)CC2)cc1` [Example 45], for which the Emax lay within 30 to 80%.
Consider `O=S(=O)(c1ccc(OC(F)F)cc1)N1CCC(n2c(-c3ccccc3Cl)nc3cccnc32)CC1` [Example 46], for which the Emax is 30 to 80%.
For `CCc1ccc(S(=O)(=O)N2CCC(n3c(-c4ccc(F)cc4F)nc4cccnc43)CC2)cc1` [Example 47], the Emax was 30 to 80%.
Same read-out and setting: in the case of `O=S(=O)(c1ccc2c(c1)OC(F)(F)O2)N1CCC(n2c(-c3ccccc3)nc3cccnc32)CC1` [Example 48] it was 30 to 80%; in that of `COc1ccc(S(=O)(=O)N2CCC(n3c(-c4ccccc4C(F)(F)F)nc4cccnc43)CC2)cc1Cl` [Example 49], 30 to 80%.
For the compound `COc1ccc(S(=O)(=O)N2CCC(n3c(-c4ccccc4C#N)nc4cccnc43)CC2)cc1Cl` [Example 50], the Emax is 30 to 80%.
For `O=S(=O)(c1ccc2c(c1)CCC2)N1CCC(n2c(-c3ccncc3F)nc3cccnc32)CC1` [Example 51], the Emax was 30 to 80%.
As for `O=S(=O)(c1ccc2c(c1)OC(F)(F)O2)N1CCC(n2c(-c3ccncc3F)nc3cccnc32)CC1` [Example 52], the Emax lay in the range of 30 to 80%.
Still for that read-out and setting: in the case of `COc1ccc(S(=O)(=O)N2CCC(n3c(-c4ccc(F)cc4F)nc4cccnc43)CC2)cc1Cl` [Example 53] it was 30 to 80%; in that of `Cc1ccc2nc(-c3ncccc3Cl)n(C3CCN(S(=O)(=O)c4ccc5c(c4)OC(F)(F)O5)CC3)c2n1` [Example 54], 30 to 80%; in that of `COc1ccc(S(=O)(=O)N2CCC(n3c(-c4ccccc4OC)nc4cccnc43)CC2)cc1Cl` [Example 55], 30 to 80%.
Same read-out and setting: in the case of `O=S(=O)(c1ccc(OC(F)F)cc1)N1CCC(n2c(-c3ccncc3Cl)nc3cccnc32)CC1` [Example 56] it was 30 to 80%; in that of `COc1ccc(S(=O)(=O)N2CCC(n3c(-c4ccc5c(c4)OCO5)nc4cccnc43)CC2)cc1Cl` [Example 57], 30 to 80%.
As to `COc1ccc2nc(-c3ccncc3Cl)n(C3CCN(S(=O)(=O)c4ccc(OC)c(Cl)c4)CC3)c2n1` [Example 58], the Emax fell in the range of 10 to 30%.
For the compound `Cc1ccc(S(=O)(=O)N2CCC(n3c(-c4ccccc4Cl)nc4cccnc43)CC2)cc1` [Example 59], the Emax is 30 to 80%.
For the compound `COc1ccc(S(=O)(=O)N2CCC(n3c(-c4ccccc4Cl)nc4cccnc43)CC2)cc1F` [Example 60], the Emax fell in the range of 30 to 80%.
Same read-out and setting: the result for `Cc1ccc(S(=O)(=O)N2CCC(n3c(-c4ccccc4)nc4ccc(C)nc43)CC2)cc1` [Example 61] reads 30 to 80%; that for `Cc1ccc2nc(-c3ccccc3)n(C3CCN(S(=O)(=O)c4ccc5c(c4)OCO5)CC3)c2n1` [Example 62], 30 to 80%.
`Cc1ccc2nc(-c3ccccc3)n(C3CCN(S(=O)(=O)c4ccc(C)c(Cl)c4)CC3)c2n1` [Example 63]: the Emax lay in the range of 30 to 80%.
Turning to `COc1ccc(S(=O)(=O)N2CCC(n3c(-c4ccccc4)nc4ccc(C)nc43)CC2)cc1F` [Example 64], the Emax lay within 30 to 80%.
